Test results from patent publication US20190192697A1, “CHEMICAL PROBES OF LYSYL OXIDASK-LIKE 2 AND USES THEREOF” (PHARMAKEA, INC., priority 2016, published 2019).
Where a name gives a salt, the structure may show the parent alone.

How the values were obtained:
LOXL2 [1] = target: T1, LOXL2 (Homo sapiens, UniProt Q9Y4K0); assay: Western-based quantification of free LOXL2 captured with biotinylated LOXL2 inhibitor (Compound 1-1); type: binding; details: pre-incubation with 1-13a 1-2 hrs at 37° C., capture with Compound 1-1
T1 sequence (Q9Y4K0 26-774): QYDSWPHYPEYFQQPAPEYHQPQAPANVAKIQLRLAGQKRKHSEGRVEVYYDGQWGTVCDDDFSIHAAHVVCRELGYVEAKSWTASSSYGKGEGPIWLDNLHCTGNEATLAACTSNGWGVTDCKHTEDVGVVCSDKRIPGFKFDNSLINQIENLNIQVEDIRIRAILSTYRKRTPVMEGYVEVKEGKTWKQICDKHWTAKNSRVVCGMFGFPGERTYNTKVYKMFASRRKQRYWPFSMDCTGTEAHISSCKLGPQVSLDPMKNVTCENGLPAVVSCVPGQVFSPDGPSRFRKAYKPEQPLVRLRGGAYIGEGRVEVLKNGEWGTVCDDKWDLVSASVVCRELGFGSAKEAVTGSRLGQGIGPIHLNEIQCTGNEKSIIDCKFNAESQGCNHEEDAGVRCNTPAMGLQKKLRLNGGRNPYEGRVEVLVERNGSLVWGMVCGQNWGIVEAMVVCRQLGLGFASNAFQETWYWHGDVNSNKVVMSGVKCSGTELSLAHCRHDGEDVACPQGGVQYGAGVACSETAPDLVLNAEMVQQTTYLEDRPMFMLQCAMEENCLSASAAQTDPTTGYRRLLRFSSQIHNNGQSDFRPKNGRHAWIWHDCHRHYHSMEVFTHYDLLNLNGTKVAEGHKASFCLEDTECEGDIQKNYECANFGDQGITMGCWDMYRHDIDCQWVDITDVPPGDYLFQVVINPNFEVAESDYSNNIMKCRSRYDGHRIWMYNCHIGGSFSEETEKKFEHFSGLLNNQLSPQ
Description: To quantify LOXL2 using a Western-based assay, a suitable amount of the LOXL2 inhibitor 1-13a, such as 10 or DMSO was pre-incubated with a suitable amount of LOXL2, such as 1 ng, 10 ng, or 100 ng, for a suitable amount of time at an appropriate temperature, such as 1-2 hrs at 37° C. Then an appropriate amount of the biotinylated labeled LOXL2 inhibitor (Compound 1-1), such as 5, was added and was allowed to incubate with the LOXL2 for a suitable amount of time at an appropriate temperature, such as 1 hr at 37° C. Then the biotinylated labeled LOXL2 inhibitor (Compound 1-1)/LOXL2 complex was isolated with Streptavidin coated magnetic beads. After incubation with the streptavidin magnetic beads for an appropriate amount of time, a magnet (for example, DynaMag™-2 Magnet) was used to capture the biotinylated labeled LOXL2 inhibitor (Compound 1-1)/LOXL2 bead bound complex and the supernatant was removed. […]
A Western Blot is then performed with an anti-LOXL2 antibody to quantify the amount of LOXL2 bound to the biotinylated LOXL2 inhibitor (Compound 1-1).

LOXL2 [2] = target: T1, LOXL2; assay: Western-based magnetic bead assay for free/unbound LOXL2 in human plasma pre-incubated with compound; type: binding; parameters: from tissue; host or cells: human plasma (donors / healthy volunteers); details: 10 mL human plasma, 2 hours at 37° C., capture with FG beads (Compound 1-7)
Description: Beads are resuspended to 10 mg/mL in Wash Buffer (20 mM Tris pH 8, 0.2% NP-40, 120 mM NaCl) and 1 mg beads (100 μL) are added to 1-10 mL of plasma, serum or other biological fluid containing LOXL2 and incubated at 37° C. for 0.5-2 hours with rotation. Beads are separated from plasma or other matrix using magnetic separation (for example, DynaMag™-15 Magnet) for 10 minutes at room temperature then the plasma/matrix carefully removed. The beads are resuspended in 1 mL Wash Buffer, vortexed and centrifuged at 4500×g for 5 minutes at room temperature to move all beads to the bottom of the tube. Beads are transferred to a 1.5 mL microfuge tube and washed 3 times with Wash Buffer using magnetic separation (for example, DynaMag™-2 Magnet). After the final wash, beads are resuspended in 40 μL of 1× BOLT® LDS Sample Buffer (Thermo Fisher, Waltham, Mass.) containing 1× BOLT® Sample Reducing Agent (Thermo Fisher, Waltham, Mass.) and incubated for 10 minutes at 90° C. Samples are centrifuged at 10,000×g for 1 minute then magnetically separated using a DynaMag™-2 Magnet for 2 minutes. 40 μL of each supernatant is loaded into one well of a 10 well 4-12% Bis-Tris Plus gel (Thermo Fisher, Waltham, Mass.) and the gels run for 45 minutes at 164 volts in 1×MES SDS Running Buffer (Thermo Fisher, Waltham, Mass.). […]

- reduction of unbound/free LOXL2 captured by the biotinylated LOXL2 inhibitor (LOXL2 [1]): 70-100%
- decrease of free/unbound LOXL2 relative to vehicle control (LOXL2 [2]; 1 μM): approximately 63%
- decrease of free/unbound LOXL2 relative to vehicle control (LOXL2 [2]; 10 μM): ~100%
SMILES: NCc1cc(Oc2cccc(C(=O)N3C[C@@H](O)[C@H](F)C3)c2)nc(C(F)(F)F)c1 [Compound 1-13a, (R,R)-trans-(3-((4-(Aminomethyl)-6-(trifluoromethyl)pyridin-2-yl)oxy)phenyl)(3-fluoro-4-hydroxypyrrolidin-1-yl)methanone hydrochloride]
